Laboratory results reported in patent US20190084909A1, “F[…] COMPOUNDS, COMPOSITIONS AND USES THEREOF” (YISSUM RESEARCH DEVELOPMENT COMPANY OF THE HEBREW …, priority 2015, published 2019).

Tests used:
Male Swiss mice [1] = assay: Forced swimming test (FST), Example 9; type: in vivo; details: doses of 3 and 10 mg/kg ip; p<0.05
Method: (§1) Male Swiss mice (25-30 g) originated from the Central Animal Farm of the School of Medicine of Ribeirão Preto (FMRP-USP) were maintained in groups of five animals per box (41×33×17 cm) in a temperature controlled room (24±2° C.) with a 12×12 h light-dark cycle. They received water and food ad libitum throughout the study period.
(§2) Cannabidiol (CBD; THC Pharm, 15-60 mg/kg) and HU-485 (1-10 mg/kg) were administered intraperitoneally (ip). All drugs were dissolved in 2% Tween 80 in sterile saline.
Animals were submitted to 6 min of forced swimming in glass cylinders (height 25 cm, diameter 17 cm) containing 10 cm of water at 23-25° C. Immobility time (characterized by slow movements necessary to avoid drowning) was measured during the last 4-min period. The water was changed after each trial to prevent the influence of alarm substances (Zanelati et al., 2010). Antidepressants typically decrease immobility time in this test.
Results were analyzed by one-way ANOVA followed by Duncan test. Significant level was set at p<0.05.
Animals received an injection of vehicle (V, n=7 animals/group) or HU-485 and were tested in the EPM 20 min later. Immediately after the test they were submitted to the FST for 6 min. Data represents the means±SEM of immobility time in the FST and the % of open arm entries and time spent in these arms of the EPM. * indicates difference from V group.

Male Swiss mice [2] = assay: Pre-pulse inhibition (PPI), impairment induced by amphetamine; type: in vivo
Method: as §1, §2
The PPI test was conducted simultaneously in two identical startle response systems (Med Associates, USA). A continuous acoustic signal provided a background white noise level of 65 dB. The pulse consists of a 105 dB white noise burst with a rise/decay of 5 ms and duration of 20 ms. The pre-pulse comprised pure 7000 Hz tones, 10 ms duration, with intensities set at 80, 85, and 90 dB. The setups were daily calibrated to ensure equal sensitivity throughout the experiments. Calibration was performed by adjusting the gain on the load cell amplifier to 150 arbitrary units (AU) at a standard weight appropriated for a 40 g mice. The limits of the load cell were −2047 to +2047 AU. Thirty min after the injection of the tested compounds mice received i.p. injections of amphetamine 10 mg/kg or vehicle. […] The first 10 pulse-alone trials allow for the within-session habituation to the startle stimulus and are not considered for PPI statistical analysis. The test consisted of 64 pseudo-random trials divided into eight different groups presented with an inter-stimulus interval of 30 s, and consisting of pulse alone (105 dB), pre-pulse alone (80, 85, or 90 dB), pre-pulse+pulse with 100 ms interval between pre-pulse and pulse, and no stimulus presented. […] Mean acoustic startle response to pulse-alone (P) trials and each pre-pulse+pulse (PP+P) trial was recorded for each subject. PPI was calculated by expressing the pre-pulse+pulse startle amplitude as a percentage of decrease from pulse-alone startle amplitude, according to the following formula: % PPI=100−[100×(PP+P/P)]. This transformation reduces statistical variability attributable to differences between animals and it is a direct PPI measure. Antipsychotic drugs typically attenuate PPI impairment induced by amphetamine.
(§3) Results were analyzed by one-way ANOVA followed by Duncan test. […]
Animals received a first injection of vehicle (V) or CBD, followed 30 min later, by vehicle (n=9) or amphetamine 10 mg/kg (V+amphetamine group=9 animals). PPI was evaluated at three-stimuli intensity (90, 85 and 80 dB). […]
Animals received a first injection of vehicle (V) or HU-485, followed 30 min later, by vehicle (n=7) or amphetamine 10 mg/kg (V+amphetamine group=7 animals). PPI was evaluated at three-stimuli intensity (90, 85 and 80 dB). […]

Male Swiss mice [3] = assay: Elevated plus maze (EPM), Example 9; type: in vivo; details: 10 mg/kg ip
Method: as §1, §2
The wood-made EPM was located in a sound attenuated and temperature controlled room (23° C.), with one incandescent light (40 W) placed 1.3 m away from the maze. The apparatus consisted of two opposing open arms (30×5 cm) perpendicular to two enclosed arms (30×5×40 cm), with a central platform common to all arms (5×5 cm). The apparatus was elevated 50 cm above the ground and an acrylic edge (1 cm) surrounded the open arms to prevent animal falls. […] The test lasted for 5 min and the animal behavior was analyzed with the help of the Anymaze Software (version 4.5, Stoelting), which indicated the position of the animal in the maze and calculated the percentage of entries (Peo) and time spent in the open arms (Pto) and the number of entries in the enclosed arms (EA). […]
as §3

human CB2 = molecular target: T1, human CB2 (Homo sapiens, UniProt P34972); assay: CB2 receptor binding assay, [3H]CP-55,940, membranes of transfected CHO cells
T1 construct: expressed in transfected cells; host or cells: CHO cells, stably transfected; crude membranes
T1 sequence (P34972 whole entry): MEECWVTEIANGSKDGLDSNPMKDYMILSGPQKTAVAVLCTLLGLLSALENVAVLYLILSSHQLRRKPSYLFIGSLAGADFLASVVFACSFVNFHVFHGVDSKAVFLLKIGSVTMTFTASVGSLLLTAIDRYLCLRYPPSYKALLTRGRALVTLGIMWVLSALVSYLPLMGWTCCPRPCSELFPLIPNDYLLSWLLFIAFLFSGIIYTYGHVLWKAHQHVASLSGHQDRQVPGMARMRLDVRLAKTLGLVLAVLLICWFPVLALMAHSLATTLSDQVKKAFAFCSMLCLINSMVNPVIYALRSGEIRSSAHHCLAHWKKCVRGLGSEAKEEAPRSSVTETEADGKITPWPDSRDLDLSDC
Method: For CB1 receptor binding assay synaptosomal membranes from rat brains were used. Sabra male rats weighing ˜200 g were decapitated and their brains, without the brain stem, were quickly removed. Synaptosomal membranes were prepared from the brains by centrifugation and sucrose density gradient ultracentrifugation after their homogenization. The CB2 receptor binding assays were performed using crude membranes obtained from Chinese hamster ovary (CHO) cells stably transfected with the human CB2 cDNA.
Bound and free radioligand were separated by centrifugation (13,000 rpm for 6 min). Non-specific binding, which was determined with 50 nM unlabelled CP-55,940, was subtracted. Binding experiments were repeated 2-3 times and each point performed in triplicate. The Ki values were determined using the GraphPad Prism program (La Jolla, Calif., USA) and the Cheng-Prusoff equation.

Row | SMILES | immobility time in the FST (Male Swiss mice [1]) | effect on PPI by itself (Male Swiss mice [2]; 30 mg/kg, without amphetamine) | effect on PPI impairment by amphetamine (Male Swiss mice [2]; HU-485 3, 10 and 30 mg/kg, any dose, amphetamine 10 mg/kg) | number of enclosed arm entries (Male Swiss mice [3]) | percentage of time spent in the open arms of the EPM (Male Swiss mice [3]; Duncan p<0.05) | Ki (human CB2) [µM]
1 | CCCCCc1cc(O)c(C2C=C(CF)CC[C@H]2C(C)C)c(O)c1 (stereo partly drawn) [HU-485] | decreased | did not impair PPI | not attenuated | without changing | increased | –
2 | CCCCCc1cc(O)c(C2C=C(C)C(F)C[C@H]2C(C)C)c(O)c1 (stereo partly drawn) [HU-487] | – | – | – | – | – | 4 to 5
